In brackets after ≈: the same amount, converted by molar mass.
Experiments:
[1] = tested on: 60 cancer cell lines; test: NCI-60 one-dose screen (10 μM); assay type: cell-based; conditions: Homo sapiens; one dose of 10 μM, mean over 60 cancer cell lines; read-out: Mean Growth Percent (MGP)
Description: Additionally, the mean of the growth percentages (MGP) of each compound against all the 60 cancer cell lines is also reported, which is used as one of the selection criteria to continue with tests at five concentration doses.

[2] = Hemolytic activity, spectrophotometric; assay type: cell-based, human; conditions: human, human red blood cells (huRBC), 5% hematocrit, 200 μg/mL, 37 °C
[3] = tested on: N. gonorrhoeae ATCC 49226; test: MIC on GC agar plates; assay type: cell-based, Neisseria gonorrhoeae; conditions: Neisseria gonorrhoeae, ATCC49226, read-out: MIC
Procedure: An initial screening for bacterial inhibition was performed by the agar diffusion method. […] DMSO and TSB were included as negative controls. Gentamicin and trimethoprim sulfamethoxazole were included as a positive control for growth inhibition. Derivatives showing growth inhibition were tested at least twice before being selected for the microdilution test. For N. gonorrhoeae, the agar diffusion method was also used for screening with some modifications. […] Penicillin and tetracycline were used as controls. […] Briefly, GC agar supplemented with 1% isovitalex was prepared with increasing concentrations of the new compounds and inoculated with 10 µL of a bacterial suspension (1 × 10^4 CFU). The lowest concentration of the compound that inhibited bacterial growth was determined as the MIC. Bacterial growth was examined and verified using the oxidase test. The experiments were performed in duplicate in at least two independent assays.

[4] = tested on: M. tuberculosis ATCC 27294; test: Antitubercular broth microdilution MIC; assay type: cell-based; conditions: Mycobacterium tuberculosis; M. tuberculosis ATCC 27294 (H37Rv); read-out: Minimum inhibitory concentration (MIC)
[5] = tested on: Candida albicans (ATCC 10231); test: Antifungal broth microdilution (CLSI); assay type: cell-based; conditions: ATCC10231; Ca: Candida albicans
Procedure: (§1) Several of the obtained triazine derivatives were evaluated against sensitive fungal species comprising of two yeasts (Candida albicans (ATCC 10231), Cryptococcus neoformans (ATCC 32264)), three dermatophytes (Microsporum gypseum (CCC 115), Trichophyton rubrum (CCC 134-2000), Trichophyton mentagrophytes (CCC 202-2000)), and three Aspergillus fungi ((A. [NT] 26934), A. niger (ATCC 9029), and A. flavus (ATCC 9170)). […] Broth microdilution techniques were performed in 96-well microplates according to the Reference Method for Broth Dilution Antifungal Susceptibility Testing of Yeasts, document M27-A3 [86] and of Filamentous Fungi […]-A8 [87]. […] An inoculum suspension (100 μL) was added to each well (final well volume = 200 μL). One growth control well (containing medium, inoculum, and the same amount of DMSO as used for each compound) and one sterility control well (sample, medium, and sterile water instead of inoculum) were included for each fungus tested. Microtiter plates were incubated in a dark, humid chamber at 30 °C for the time necessary for each fungus. Amphotericin B, Terbinafine, Fluconazole and Itraconazole were used as a positive control. The tests were performed in triplicate.

[6] = tested on: Cryptococcus neoformans (ATCC 32264); test: Antifungal broth microdilution (CLSI); assay type: cell-based; conditions: ATCC32264; Cn: Cryptococcus neoformans
Procedure: as §1

[7] = tested on: Microsporum gypseum (CCC 115); test: Antifungal broth microdilution (CLSI); assay type: cell-based; conditions: Nannizzia gypsea; Mg: Microsporum gypseum
Procedure: as §1

[8] = tested on: Trichophyton mentagrophytes (CCC 202-2000); test: Antifungal broth microdilution (CLSI); assay type: cell-based; conditions: Tm: Trichophyton mentagrophytes
Procedure: as §1

[9] = tested on: Trichophyton rubrum (CCC 134-2000); test: Antifungal broth microdilution (CLSI); assay type: cell-based; conditions: Tr: Trichophyton rubrum
Procedure: as §1

| Compound | activity at 10 µM [1] | hemolysis at 24 h, 200 µg/mL [2] | MIC [3] | further results |
| --- | --- | --- | --- | --- |
| COc1ccc(C2CC(c3ccc(S(=O)(=O)NCCNc4nc(N(C)C)nc(N5CCOCC5)n4)cc3)=Nc3c(N)nc(N)nc3N2)cc1 (centres unmarked) [30c] | 84.3% | – | – | – |
| CN(C)c1nc(NCCNS(=O)(=O)c2ccc(C3=Nc4c(N)nc(N)nc4NC(c4ccc(Cl)cc4)C3)cc2)nc(N2CCOCC2)n1 (centres unmarked) [30e] | 48.9% | 2.7% | – | – |
| CN(C)c1nc(NCCNS(=O)(=O)c2ccc(C3=Nc4c(N)nc(N)nc4NC(c4ccc(F)cc4)C3)cc2)nc(N2CCOCC2)n1 (centres unmarked) [30f] | 72.8% | – | – | – |
| COc1ccc(C2CC(c3ccc(S(=O)(=O)NCCNc4nc(Nc5ccc(F)cc5)nc(N(C)C)n4)cc3)=Nc3c(N)nc(N)nc3N2)cc1 (centres unmarked) [31c] | 75.8% | 1.2% | 8 µg/mL (≈ 11.2 µM) | MIC [4]: 1.2 µg/mL (≈ 1.68 µM) |
| COc1cc(C2CC(c3ccc(S(=O)(=O)NCCNc4nc(Nc5ccc(F)cc5)nc(N(C)C)n4)cc3)=Nc3c(N)nc(N)nc3N2)cc(OC)c1OC (centres unmarked) [31d] | 79.6% | 0.6% | 500 µg/mL (≈ 646 µM) | MIC [4]: 5 µg/mL (≈ 6.46 µM) |
| Nc1nc(N)c2c(n1)NC(c1ccccc1)CC(c1ccc(Nc3nc(NCCO)nc(N4CCOCC4)n3)cc1)=N2 (centres unmarked) [32a] | 87.2% | 2% | 8 µg/mL (≈ 14.1 µM) | – |
| Cc1ccc(C2CC(c3ccc(Nc4nc(NCCO)nc(N5CCOCC5)n4)cc3)=Nc3c(N)nc(N)nc3N2)cc1 (centres unmarked) [32b] | 84.5% | 1% | 4 µg/mL (≈ 6.86 µM) | – |
| COc1ccc(C2CC(c3ccc(Nc4nc(NCCO)nc(N5CCOCC5)n4)cc3)=Nc3c(N)nc(N)nc3N2)cc1 (centres unmarked) [32c] | 101% | – | – | – |
| COc1cc(C2CC(c3ccc(Nc4nc(NCCO)nc(N5CCOCC5)n4)cc3)=Nc3c(N)nc(N)nc3N2)cc(OC)c1OC (centres unmarked) [32d] | 99.5% | – | 500 µg/mL (≈ 759 µM) | – |
| Nc1nc(N)c2c(n1)NC(c1ccc(Cl)cc1)CC(c1ccc(Nc3nc(NCCO)nc(N4CCOCC4)n3)cc1)=N2 (centres unmarked) [32e] | 74% | – | 1000 µg/mL (≈ 1660 µM) | – |
| Nc1nc(N)c2c(n1)NC(c1ccc(F)cc1)CC(c1ccc(Nc3nc(NCCO)nc(N4CCOCC4)n3)cc1)=N2 (centres unmarked) [32f] | 89.1% | 5% | 2 µg/mL (≈ 3.41 µM) | – |
| Nc1nc(N)c2c(n1)NC(c1ccc(C(F)(F)F)cc1)CC(c1ccc(Nc3nc(NCCO)nc(N4CCOCC4)n3)cc1)=N2 (centres unmarked) [32g] | 64.8% | 2% | 4 µg/mL (≈ 6.28 µM) | – |
| COc1ccc(C2CC(c3ccc(Nc4nc(NCCO)nc(Nc5ccc(Cl)cc5)n4)cc3)=Nc3c(N)nc(N)nc3N2)cc1 (centres unmarked) [33c] | 63.3% | 5% | 2 µg/mL (≈ 3.13 µM) | – |
| COc1cc(C2CC(c3ccc(Nc4nc(NCCO)nc(Nc5ccc(Cl)cc5)n4)cc3)=Nc3c(N)nc(N)nc3N2)cc(OC)c1OC (centres unmarked) [33d] | 65.3% | – | – | – |
| OC(Cn1cncn1)(Cn1cncn1)c1ccc(F)cc1F [Fluconazole, reference compound] | – | – | – | MIC [5]: 0.03 µg/mL (≈ 0.098 µM); MIC [6]: 0.25 µg/mL (≈ 0.816 µM) |
| NNC(=O)c1ccncc1 [Isoniazid, reference compound] | – | – | – | MIC [4]: 0.1 µg/mL (≈ 0.729 µM) |
| CCC(C)n1ncn(-c2ccc(N3CCN(c4ccc(OCC5COC(Cn6cncn6)(c6ccc(Cl)cc6Cl)O5)cc4)CC3)cc2)c1=O (centres unmarked) [Itraconazole, reference compound] | – | – | – | MIC [5]: 0.5 µg/mL (≈ 0.709 µM) |
| CN(C/C=C/C#CC(C)(C)C)Cc1cccc2ccccc12 [Terbinafine, reference compound] | – | – | – | MIC [7]: 0.04 µg/mL (≈ 0.137 µM); MIC [8]: 0.025 µg/mL (≈ 0.0858 µM); MIC [9]: 0.01 µg/mL (≈ 0.0343 µM) |
| COc1cc(C=O)ccc1Oc1nc(NCCO)nc(N2CCOCC2)n1 [compound 14] | 102% | – | – | – |
| COc1cc(C=O)ccc1Oc1nc(Nc2ccc(F)cc2)nc(N(C)C)n1 [compound 15] | 64.5% | – | ≥ 500 µg/mL | – |
| CC(=O)c1ccc(S(=O)(=O)NCCNc2nc(Nc3ccc(F)cc3)nc(N(C)C)n2)cc1 [compound 18] | 104% | – | – | – |
